# Test results as given in patent US12594266B2, “Triterpenoid antifungals for the treatment or prevention of Pneumocystis spp. pneumonia” (priority 2019, dated 2026).
# Tests used:
# [1] = patients with HIV; cited from earlier work
# P. murina [2] = assay: Mouse model of prophylaxis for PCP (C3H/HeN mice, intranasal P. murina); format: in vivo, Pneumocystis murina; conditions: for Percent Survival at Day 7 / Percent Survival at Day 14 / Percent Survival at Day 21 / Percent Survival at Day 28 / Percent Survival at Day 35 / Percent Survival at Day 42: prophylaxis, mice
# Experimental: Compound Preparation: SCY-078 (ibrexafungerp) was prepared in 0.5% methyl cellulose for oral administration. A correction factor of 1.37 for this lot was taken into account for salt and water content. Mice in the high dose group received 0.6 mg of SCY-078 BID, mid dose group received 0.3 mg of SCY-078 BID, and low dose group received 0.15 mg of SCY-078 BID, based on average mouse weights of 20 g.
# P. murina prophylaxis study method: C3H/HeN mice (Charles River) were infected by intranasal inoculation of P. murina organisms at 2×10^6/50 μl from a liquid nitrogen repository. Prior to inoculation, the P. murina were pre-incubated overnight in RPMI 1640 medium supplemented with calf serum and antibiotics to eliminate any bacterial contamination. The immune systems of the mice were suppressed by the addition of dexamethasone at 4 mg/liter to acidified drinking water (hydrochloric acid at 1 ml/liter). Acidification is used to prevent secondary microbial infections. The mice were divided into a negative (non-treated) control group (control steroid—C/S), positive control group (trimethoprim/sulfamethoxazole—TMP/SMX) and treatment groups. SCY-078 was administered orally (po) BID at the specified doses. The mice were started on the prophylaxis regimen at the same time they were inoculated. Immune suppression and treatment continued for the entire 6-week study. At the conclusion of that time, the mice were euthanized by CO2 and lungs processed for analysis by homogenization. Slides were made from the lung homogenates at different dilutions and stained with Diff-Quik to quantify total nuclei (trophic forms) and with cresyl echt violet to quantify the asci (cyst forms).
# (§1) Calculations: Efficacy was based on the reduction of organism burden between the treatment groups and the negative control group as determined by microscopic evaluation. The nuclei and asci counts for each lung were log transformed and statistical analysis was determined by the analysis of variance (ANOVA); individual groups were compared by the Student-Newman-Keuls t test for multiple comparisons using GraphPad Prism. Statistical significance was accepted at a P value≤0.05.
# [3] = human, in vivo
# Excerpt: The safety and tolerability of SCY-078 has been evaluated in more than 900 subjects in ˜20 clinical trials, at different doses and treatment durations, including administration for up to 1 year. […] Serious adverse events possibly related to SCY-078 have been very rare and interruption or discontinuation of therapy due to adverse reactions has been uncommon. Additionally, the safety profile of oral SCY-078 has been evaluated in standard long-term non-clinical toxicology studies including administration for 9 months in dogs and 6 months in rats, at doses and exposures higher than those anticipated in humans, in line with ICH guidelines. The results from these non-clinical studies support the long-term administration of oral SCY-078 in humans. SCY-078 is currently under evaluation in ongoing clinical trials for the treatment of fungal infections such as candidiasis and aspergillosis. SCY-078 has not been evaluated in clinical trials for the treatment or prevention of PCP.
# P. murina [4] = assay: Mouse model of treatment of PCP, early response (C3H/HeN mice); format: in vivo, Pneumocystis murina
# P. murina [5] = assay: Mouse model of treatment of PCP, 28-42 days (Balb/c mice); format: in vivo, Pneumocystis murina
# Experimental: Compound Preparation: SCY-078 (ibrexafungerp) was prepared in 0.5% methyl cellulose for oral administration. A correction factor of 1.37 was taken into account for salt and water content. […]
# P. murina treatment study methods: Balb/c mice ordered from Charles River were infected with P. murina pneumonia through exposure to mice with a fulminant P. murina infection (seed mice). These mice were immune suppressed by the addition of dexamethasone at 4 mg/liter to the drinking water. Sulfuric acid at 1 ml/liter was also added to the drinking water for disinfection. The seed mice were rotated within the cages for 2 weeks and then removed. After the mice developed a moderate infection level (approximately 5 weeks), the mice were divided into a negative control group (control steroid), positive control group (TMP/SMX), and treatment groups. Drugs to be tested were administered by oral gavage (PO) on a mg/kg/BID basis for up to 6 weeks. At the end of the treatment, the mice were euthanized by CO2 and lungs were processed for analysis. Slides were made from the lung homogenates at different dilutions and stained with Diff-Quik™ to quantify the nuclei (all life cycle stages) and with cresyl echt violet to quantify the asci.
# as §1
# [6] = both dose levels (30 and 15 mg/kg BID po), Day 14 and Day 21
# [7] = 30 mg/kg BID po, 6 weeks prophylaxis
# [8] = all 3 dose levels (30, 15, 7.5 mg/kg BID po), 6 weeks prophylaxis, lung
# [9] = 15 and 10 mg/kg groups, days 28 and 35
# [10] = all dose levels (15, 10, 5 mg/kg BID po), days 28, 35 and 42
molecule,measurement,setting,value
"Trimethoprim-sulfamethoxazole [TMP/SMX, reference compound]",hepatitis,[1],20 % of patients
same,thrombocytopenia,[1],15 % of patients
same,Percent Survival at Day 7,P. murina [2]; 50/250 mg/kg 3x/wk,100%
same,Percent Survival at Day 14,P. murina [2]; 50/250 mg/kg 3x/wk,90%
same,Percent Survival at Day 21,P. murina [2]; 50/250 mg/kg 3x/wk,90%
same,Percent Survival at Day 28,P. murina [2]; 50/250 mg/kg 3x/wk,90%
same,Percent Survival at Day 35,P. murina [2]; 50/250 mg/kg 3x/wk,90%
same,Percent Survival at Day 42,P. murina [2]; 50/250 mg/kg 3x/wk,90%
"CC(C)[C@@H](C)[C@@]1(C)CC[C@]2(C)[C@H]3CC[C@@H]4[C@@]5(COC[C@@]4(C)[C@@H](OC[C@](C)(N)C(C)(C)C)[C@H](n4ncnc4-c4ccncc4)C5)C3=CC[C@@]2(C)[C@@H]1C(=O)O [SCY-078, (1S,4aR,6aS,7R,8R,10aR,10bR,12aR,14R,15R)-15-[[(2R)-2-amino-2,3,3-trimethylbutyl]oxy]-8-[(1R)-1,2-dimethylpropyl]-14-[5-(4-pyridinyl)-1H-1,2,4-triazol-1-yl]-1,6,6a, 7,8,9,10,10a, 10b, 11,12,12a-dodecahydro-1,6a, 8,10a-tetramethyl-4H-1,4a-propano-2H-phenanthro [1,2-c]pyran-7-carboxylic acid]",interruption or discontinuation of therapy due to adverse reactions,[3],uncommon
same,most common adverse events,[3],"mild to moderate, transient gastrointestinal disorders"
same,serious adverse events possibly related to SCY-078,[3],very rare
same,magnitude of the effect against nuclei burden compared with TMP/SMX,P. murina [4]; both dose levels,lower than observed with the TMP/SMX control
same,asci burdens versus vehicle treated negative control group (C/S),P. murina [4]; [6],significantly reduced
same,nuclei burdens versus vehicle treated negative control group (C/S),P. murina [4]; [6],significantly reduced
same,extent of asci burden reduction compared with TMP/SMX,"P. murina [4]; both dose levels, Day 14 and Day 21",to a similar extent
same,reduction of asci burden compared with TMP/SMX,"P. murina [4]; both dose levels, day 7",statistically significantly better
same,Percent Survival at Day 7,P. murina [2]; 7.5 mg/kg BID po,100%
same,Percent Survival at Day 14,P. murina [2]; 7.5 mg/kg BID po,90%
same,Percent Survival at Day 21,P. murina [2]; 7.5 mg/kg BID po,90%
same,Percent Survival at Day 28,P. murina [2]; 7.5 mg/kg BID po,90%
same,Percent Survival at Day 35,P. murina [2]; 7.5 mg/kg BID po,90%
same,Percent Survival at Day 42,P. murina [2]; 7.5 mg/kg BID po,90%
same,Percent Survival at Day 7,P. murina [2]; 15 mg/kg BID po,100%
same,Percent Survival at Day 14,P. murina [2]; 15 mg/kg BID po,90%
same,Percent Survival at Day 21,P. murina [2]; 15 mg/kg BID po,90%
same,Percent Survival at Day 28,P. murina [2]; 15 mg/kg BID po,80%
same,Percent Survival at Day 35,P. murina [2]; 15 mg/kg BID po,80%
same,Percent Survival at Day 42,P. murina [2]; 15 mg/kg BID po,80%
same,reduction of asci burden compared with TMP/SMX,P. murina [2]; [7],performed equally as well
same,survival versus vehicle treated negative control group,P. murina [2]; [7],significant improvement in survival
same,Percent Survival at Day 7,P. murina [2]; 30 mg/kg BID po,100%
same,Percent Survival at Day 14,P. murina [2]; 30 mg/kg BID po,100%
same,Percent Survival at Day 21,P. murina [2]; 30 mg/kg BID po,100%
same,Percent Survival at Day 28,P. murina [2]; 30 mg/kg BID po,100%
same,Percent Survival at Day 35,P. murina [2]; 30 mg/kg BID po,100%
same,Percent Survival at Day 42,"P. murina [2]; 30 mg/kg BID po, * statistically significant difference vs C/S group",100* Percent
same,asci burden versus vehicle treated negative control group (C/S),P. murina [2]; [8],significantly reduced
same,nuclei burden versus vehicle treated negative control group (C/S),P. murina [2]; [8],significantly reduced
same,asci observed in lung,P. murina [5]; [9],No asci were observed
same,reduction of asci burden compared with positive control (TMP/SMX),P. murina [5]; [9],worked equally as well
same,asci observed in lung,"P. murina [5]; all 3 dose groups, day 42",some asci were observed
same,asci burdens versus vehicle treated negative control group (C/S),P. murina [5]; [10],significantly reduced
same,nuclei burdens versus vehicle treated negative control group (C/S),P. murina [5]; [10],significantly reduced
same,reduction of asci burden compared with positive control (TMP/SMX),"P. murina [5]; all dose levels, day 42",worked equally well
